Measured values reported in the Deep4Chem optical property database.

Test: solvent given as SMILES

CC1=CC(C)=[N+]2C1=Cc1c(C)cc(C)n1[B-]2(F)F
fluorescence lifetime (in CCCCCC): 5.85 ns
fluorescence lifetime (in CO): 5.95 ns
fluorescence lifetime (in ClCCl): 5.73 ns

CCN(CC)c1ccc2c(-c3ccc(S(=O)(=O)[O-])cc3S(=O)(=O)[O-])c3ccc(=[N+](CC)CC)cc-3oc2c1
fluorescence lifetime (in CC#N): 2.46 ns
fluorescence lifetime (in CCO): 2.96 ns
fluorescence lifetime (in CN(C)C=O): 2.84 ns
fluorescence lifetime (in O): 1.49 ns

COc1ccc(C#Cc2ccc(C#N)cc2)cc1OC
fluorescence lifetime (in C1COCCO1): 1.09 ns
fluorescence lifetime (in CC#N): 2.03 ns
fluorescence lifetime (in CCCCCC): 0.37 ns
fluorescence lifetime (in CCCCCCC): 0.38 ns
fluorescence lifetime (in CCCO): 0.95 ns
fluorescence lifetime (in CCOC(C)=O): 1 ns
fluorescence lifetime (in CS(C)=O): 2.51 ns
fluorescence lifetime (in ClC(Cl)Cl): 0.89 ns
fluorescence lifetime (in ClCCl): 1.25 ns

N#Cc1cccc(N)c1
fluorescence lifetime (in C1CCCCC1): 2.4 ns
fluorescence lifetime (in CC#N): 5.1 ns
fluorescence lifetime (in CCCCCC): 1.9 ns
fluorescence lifetime (in CCO): 6.2 ns
fluorescence lifetime (in O): 0.045 ns
fluorescence lifetime (in OCC(F)(F)F): 0.11 ns

COc1ccc(-c2nc3ccccc3nc2/C=C/N2CCCC2)s1
fluorescence lifetime (in C1CCCCC1): 0.79 ns
fluorescence lifetime (in C1CCOC1): 2.79 ns
fluorescence lifetime (in CC#N): 5.78 ns
fluorescence lifetime (in CC(C)=O): 5.1 ns
fluorescence lifetime (in CCO): 0.67 ns
fluorescence lifetime (in CO): 0.22 ns
fluorescence lifetime (in CS(C)=O): 4.88 ns
fluorescence lifetime (in Cc1ccccc1): 1.25 ns
fluorescence lifetime (in ClCCl): 3.28 ns

CCCCn1c(-c2ccc(-c3nnc(-c4ccc5ccccc5c4)o3)cc2)nc(-c2ccccc2)c1-c1ccccc1
fluorescence lifetime (in ClCCl): 1.74 ns

CCOC(=O)c1ccccc1-c1c2ccc(=O)cc-2oc2cc(OC(=O)[C@H](CO[Si](C)(C)C(C)(C)C)NC(=O)OC(C)(C)C)ccc12
fluorescence lifetime (in C1CCOC1): 2.3 ns
fluorescence lifetime (in CC#N): 2.7 ns
fluorescence lifetime (in CCO): 3.65 ns
fluorescence lifetime (in CS(C)=O): 4.03 ns

Cc1ccc(-c2ccc(/C=C/c3ccc(F)cc3)cn2)nc1
fluorescence lifetime (in CC#N): 0.99 ns

C[Si](C)(C)C#Cc1cccc2ccccc12
fluorescence lifetime (in C1CCCCC1): 9 ns

Fc1c(-n2c3ccccc3c3ccccc32)c(F)c(-n2c3ccccc3c3ccccc32)c(-c2nnc(-c3ccccc3)o2)c1-n1c2ccccc2c2ccccc21
fluorescence lifetime (in Cc1ccccc1): 3.9 ns

F[B-]1(F)n2c(c3cccc4cccc2c43)=Nc2cccc[n+]21
fluorescence lifetime (in ClCCl): 7.1 ns

F[B-]1(F)OC(C#Cc2ccccc2)=C2CCc3ccccc3C2=[O+]1
fluorescence lifetime (in ClCCl): 2.79 ns

C=CCOc1nnc(OCCC(F)(F)C(F)(F)C(F)(F)C(F)(F)C(F)(F)C(F)(F)C(F)(F)C(F)(F)F)nn1
fluorescence lifetime (in ClCCl): 63.4 ns
fluorescence lifetime (in OCC(F)(F)F): 8.5 ns

F[B-]1(F)n2c(/C=C/c3ccc(C(=C(c4ccccc4)c4ccccc4)c4ccccc4)cc3)ccc2C(c2ccccc2)=C2C=CC(/C=C/c3ccc(C(=C(c4ccccc4)c4ccccc4)c4ccccc4)cc3)=[N+]21
fluorescence lifetime (in C1CCOC1): 3.98 ns

CCCCCCCCCCCCOc1cc2cc(N(C)C)ccc2cc1C=O
fluorescence lifetime (in ClCCl): 4.5 ns

Oc1ccccc1
fluorescence lifetime (in C1CCCCC1): 2.5 ns

Cc1ccc(-n2c(-c3ccccc3O)nc(-c3ccccc3O)c2-c2ccccc2O)cc1
fluorescence lifetime (in C1CCOC1): 3.1 ns
fluorescence lifetime (in CC(C)O): 3.5 ns
fluorescence lifetime (in CO): 2.9 ns
fluorescence lifetime (in CS(C)=O): 3.7 ns
fluorescence lifetime (in ClC(Cl)Cl): 1.2 ns
fluorescence lifetime (in ClCCl): 1.4 ns

CCn1c(=O)nc2n(C)c3cc(C)ccc3nc-2c1=O
fluorescence lifetime (in CC#N): 7 ns
fluorescence lifetime (in CO): 6.3 ns
fluorescence lifetime (in ClCCCl): 6.5 ns

CCCCn1c2ccccc2c2c1c1c3ccccc3n(CCCC)c1c1c3ccccc3n(CCCC)c21
fluorescence lifetime (in C1CCOC1): 6 ns

Nc1ccc2c(c1)C(=O)c1ccccc1-2
fluorescence lifetime (in C1CCCCC1): 4 ns
fluorescence lifetime (in c1ccccc1): 0.84 ns

COC(=O)c1ccc(C#Cc2ccccc2)cc1
fluorescence lifetime (in C1CCCCC1): 0.59 ns
fluorescence lifetime (in CC#N): 0.52 ns
fluorescence lifetime (in CC(C)O): 0.64 ns
fluorescence lifetime (in CCCCCC): 0.55 ns
fluorescence lifetime (in CCCCCCCCCCCCCCCC): 0.55 ns
fluorescence lifetime (in CCCCCCCCCCCCCCCCCl): 0.59 ns
fluorescence lifetime (in CO): 0.62 ns

Cc1ccc(-c2ccc(-c3ccc(-c4ccc(-c5ccc(C)cc5)cc4)c(/C(=C(/c4ccccc4)c4cc(-c5ccc(-c6ccc(C)cc6)cc5)ccc4-c4ccc(-c5ccc(C)cc5)cc4)c4ccccc4)c3)cc2)cc1
fluorescence lifetime (in C1CCOC1): 8.5 ns

COc1cc2c(cc1-c1ccc([N+](=O)[O-])cc1)Cc1c3c(c4c(c1-2)-c1cc(OC)c(-c2ccc([N+](=O)[O-])cc2)cc1C4)C(=O)N(CCC(C)C)C3=O
fluorescence lifetime (in C1CCOC1): 1.43 ns

CCN(CC)c1ccc2c(c1)oc(=O)c1c(C)nc3c(c(-c4ccccc4)nn3C)c12
fluorescence lifetime (in ClCCl): 4.28 ns

Oc1ccc2ccccc2c1-c1nc2c(c3c1-c1ccccc1CC3)-c1ccccc1CC2
fluorescence lifetime (in ClCCl): 0.97 ns

Cc1cc2nc3[nH]c(=O)[nH]c(=O)c3nc2cc1C
fluorescence lifetime (in CC#N): 0.64 ns

O=P1(c2ccccc2)c2cc(N3c4ccccc4Oc4ccccc43)ccc2-c2ccc(N3c4ccccc4Oc4ccccc43)cc21
fluorescence lifetime (in c1ccc2c(c1)c1ccccc1n2-c1ccc(-c2ccc(-n3c4ccccc4c4ccccc43)cc2)cc1): 23.7 ns

CC1(C)C(/C=C/C2=C(c3ccc(C(=O)O)cc3)C(=C/C=C3/N(CCCCS(=O)(=O)[O-])c4ccccc4C3(C)C)/CC2)=[N+](CCCCS(=O)(=O)[O-])c2ccccc21
fluorescence lifetime (in CC(C)=O): 1.13 ns
fluorescence lifetime (in CCO): 0.87 ns
fluorescence lifetime (in CO): 0.83 ns
fluorescence lifetime (in CS(C)=O): 1.11 ns
fluorescence lifetime (in ClC(Cl)Cl): 1.25 ns
fluorescence lifetime (in ClCCl): 1.17 ns
fluorescence lifetime (in O): 0.36 ns

c1ccc(-c2nc(-c3ccccc3)nc(-c3ccc(-n4c5ccccc5c5cc(-n6c7ccccc7c7ccccc76)ccc54)cc3)n2)cc1
fluorescence lifetime (in Cc1ccccc1): 6.5 ns

COCc1ncc(-c2c3ccccc3c(-c3cnc(COC)nc3)c3ccccc23)cn1
fluorescence lifetime (in CCO): 6.1 ns
fluorescence lifetime (in ClCCl): 6.5 ns

F[B-]1(F)Oc2ccc(Br)cc2-c2c3c(c4c([n+]21)CCc1ccccc1-4)CCc1ccccc1-3
fluorescence lifetime (in ClCCl): 0.41 ns

CCC(CC)COC1=CC2=C3c4cc(OCC(CC)CC)c(-c5ccccc5)n4[B-](F)(F)[n+]4nnn(c43)[B-](F)(F)[N+]2=C1c1ccccc1
fluorescence lifetime (in C1CCOC1): 1.01 ns
fluorescence lifetime (in ClCCl): 0.95 ns

N#Cc1ccc(C=C(c2ccccc2)c2ccccc2)cc1
fluorescence lifetime (in C1CCOC1): 31 ns

COc1ccc(-c2nc3ccccc3oc2=O)cc1
fluorescence lifetime (in c1ccccc1): 2.5 ns

C[Si](C)(C)c1cc2c(cc3ccc4cccc5ccc2c3c45)[nH]1
fluorescence lifetime (in CCOC(C)=O): 2.41 ns

C#CCn1c2ccccc2c2cc(/C=C/c3c(Cl)c(C)c4n3[B-](F)(F)[N+]3=C(C)C(Cl)=C(C)C3=C4c3ccc(I)cc3)ccc21
fluorescence lifetime (in CC#N): 3.95 ns
fluorescence lifetime (in CS(C)=O): 3.06 ns
fluorescence lifetime (in ClC(Cl)Cl): 4.24 ns

CCCCCCC(CCCCCC)N1C(=O)c2cccc3c(-c4ccc(OC)cc4)ccc(c23)C1=O
fluorescence lifetime (in CCCCCC): 2.65 ns
fluorescence lifetime (in CCCCCCCCCCCCCC): 3.12 ns
fluorescence lifetime (in CCCCCCCCCCCO): 4.78 ns
fluorescence lifetime (in CCCCO): 5.18 ns
fluorescence lifetime (in CN(C)C=O): 5.24 ns
fluorescence lifetime (in Cc1ccccc1): 3.5 ns
fluorescence lifetime (in ClC(Cl)Cl): 4.11 ns

c1ccc(-c2nc(-c3ccccc3)nc(-c3cc(-n4c5ccccc5c5ncccc54)c(-n4c5ccccc5c5ncccc54)c(-n4c5ccccc5c5ncccc54)c3)n2)cc1
fluorescence lifetime (in O=P(c1ccccc1)(c1ccccc1)c1ccc2oc3ccc(P(=O)(c4ccccc4)c4ccccc4)cc3c2c1): 14.5 ns

COC(=O)c1c2ccccc2nc2ccccc12
fluorescence lifetime (in C1CCOC1): 1.1 ns
fluorescence lifetime (in C1COCCO1): 0.9 ns
fluorescence lifetime (in CC#N): 0.9 ns
fluorescence lifetime (in CCCCCO): 0.7 ns
fluorescence lifetime (in CCCCO): 0.8 ns
fluorescence lifetime (in CCCO): 0.7 ns
fluorescence lifetime (in CCO): 0.8 ns
fluorescence lifetime (in CO): 1.2 ns
fluorescence lifetime (in COCCOC): 1.3 ns
fluorescence lifetime (in ClC(Cl)Cl): 0.9 ns
fluorescence lifetime (in ClCCl): 1.3 ns
fluorescence lifetime (in OCCO): 1.1 ns

c1ccc(-c2cc(-c3ccc(N4c5ccccc5C(c5ccccc5)(c5ccccc5)c5ccccc54)cn3)nc(-c3ccccc3)n2)cc1
fluorescence lifetime (in O=P(c1ccccc1)(c1ccccc1)c1ccccc1Oc1ccccc1P(=O)(c1ccccc1)c1ccccc1): 13.3 ns

N#Cc1ccc(-n2c(-c3ccc(-c4ccc(N(c5ccccc5)c5ccccc5)cc4)s3)nc3c4ccccc4c4ccccc4c32)c2ccccc12
fluorescence lifetime (in ClCCl): 5.4 ns
